Some test systems named below: SW-620; T47D; HCT-116; SK-MEL-28; SN12C; NCI/ADR-RES; EKVX; MDA-MB-231; KM12; ACHN; NCI-H460; 786-0; U-251; A498; HT-29; OVCAR-3; IGROV-1; OVCAR-4; SNB-19.
Common to all, as to assay: inhibition of tumour cell growth, NCI panel, 48 h

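Values below derive from 48-hour exposures of cells grown in 96-well plates, with endpoints linearly interpolated between the two concentrations bracketing the appropriate inhibition level. Abbreviation: GI50, concentration required for 50% inhibition of growth.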 The source made the active and inactive calls. No stated cut-off is given here; in the data, active = GI50 up to about 1.1 µM and inactive = higher.

`CN(C)CCn1c(=O)c2ccc3c4c(nn3CCN(C)C)c3cc(O)ccc3n(c1=O)c24`: the GI50 in the assay on SW-620 was 0.0365 µM (active); in the assay on T47D, 0.378 µM (active); with HCT-116, < 0.0225 µM (active); with SK-MEL-28, 0.548 µM (active); in the assay with SN12C, 0.0148 µM (active); with NCI/ADR-RES, 0.783 µM (active). For the same compound, the GI50 in the assay on EKVX is 0.124 µM (active); in the assay on MDA-MB-231, 0.0536 µM (active); in the assay on KM12 it was 0.161 µM (active); with ACHN, < 0.0308 µM (active); with NCI-H460, < 0.0411 µM (active); in the assay with 786-0, < 0.01 µM (active). For the same compound, the GI50 in the assay with U-251 was < 0.0348 µM (active); with A498 it was 0.198 µM (active); with HT-29 it was < 0.01 µM (active); in the assay with OVCAR-3 it was 0.114 µM (active).
On to `COC(=O)c1cc2c(cc1CC(Cc1ccc3c(c1)CCCC3)C(=O)OC)CCCC2` (stereo not given), for which the GI50 with SW-620 is 80.9 µM (inactive); in the assay with T47D, 39.8 µM (inactive); with HCT-116 it was 36 µM (inactive); in the assay on SK-MEL-28, 86.1 µM (inactive); in the assay with SN12C, > 100 µM (inactive); in the assay with NCI/ADR-RES, 41.3 µM (inactive). Moreover, the GI50 in the assay with MDA-MB-231 is 68.4 µM (inactive); in the assay on IGROV-1, > 100 µM (inactive); in the assay on OVCAR-4, 29.9 µM (inactive); in the assay with KM12, 50.5 µM (inactive); in the assay with ACHN it was 49.9 µM (inactive); in the assay with NCI-H460 it was 34 µM (inactive). The GI50 is 45.4 µM (inactive) with 786-0; 41.7 µM (inactive) in the assay with U-251; > 100 µM (inactive) in the assay with A498; 33.7 µM (inactive) in the assay with HT-29; 44.6 µM (inactive) in the assay on OVCAR-3; > 100 µM (inactive) with SNB-19.
`NCCc1ccc2c(c1)C(=O)c1c(O)ccc(O)c1C2=O`: the GI50 in the assay with SW-620 is 3.95 µM (inactive); with T47D it was 3.37 µM (inactive); with HCT-116, 2.69 µM (inactive); in the assay with SN12C, 2.51 µM (inactive); in the assay with NCI/ADR-RES, 3.93 µM (inactive); in the assay on EKVX, 2.45 µM (inactive). Also, the GI50 was 4.51 µM (inactive) in the assay on MDA-MB-231; 3.4 µM (inactive) with IGROV-1; 4.72 µM (inactive) in the assay on KM12; 4.46 µM (inactive) in the assay on ACHN; > 20.7 µM (inactive) in the assay with NCI-H460; 2.2 µM (inactive) in the assay on 786-0. Moreover, the GI50 is 3.64 µM (inactive) in the assay with U-251, > 58.1 µM (inactive) with A498, 1.69 µM (inactive) with OVCAR-3 and 4.72 µM (inactive) in the assay on SNB-19.
Take `O=C1N2CCc3c([nH]c4ccccc34)C23CC2CCCCC12S3` (stereo not given): the GI50 in the assay on SW-620, in the assay with T47D, in the assay with HCT-116, in the assay on SK-MEL-28, in the assay with SN12C and with NCI/ADR-RES was > 100 µM (inactive) throughout. Also, the GI50 in the assay on EKVX, with MDA-MB-231, with IGROV-1, in the assay on OVCAR-4, with KM12 and with ACHN was > 100 µM (inactive) throughout. For the same compound, the GI50 with 786-0, in the assay on U-251, in the assay on A498, in the assay with HT-29, with OVCAR-3 and in the assay on SNB-19 was > 100 µM (inactive) throughout.
For the compound `O=C1NC(=O)C(CCC(=O)c2cccc3ccccc23)C(=O)N1`, the GI50 with SW-620, with T47D, in the assay on HCT-116, in the assay with SK-MEL-28, in the assay on SN12C and in the assay with NCI/ADR-RES was > 100 µM (inactive) in each case. The GI50 with MDA-MB-231, in the assay with OVCAR-4, with KM12, in the assay with ACHN, with NCI-H460 and in the assay on 786-0 was > 100 µM (inactive) each time. For the same compound, the GI50 with U-251, in the assay with A498, in the assay with HT-29, in the assay with OVCAR-3 and in the assay with SNB-19 was > 100 µM (inactive) each time.
For the compound `O=C1/C(=C\c2ccc(F)cc2)CCOc2c1ccc1ccccc21`, the GI50 was 14.4 µM (inactive) in the assay with SW-620; 41.6 µM (inactive) with T47D; 3.49 µM (inactive) in the assay with HCT-116; 23.3 µM (inactive) in the assay with SK-MEL-28; 35.3 µM (inactive) with SN12C; 16.3 µM (inactive) with NCI/ADR-RES. For the same compound, the GI50 with EKVX was 31.4 µM (inactive); with MDA-MB-231, 14.8 µM (inactive); in the assay with OVCAR-4, 15.3 µM (inactive); in the assay on KM12, 7.94 µM (inactive); in the assay on NCI-H460, 25.1 µM (inactive); in the assay with 786-0, 23 µM (inactive). Moreover, the GI50 in the assay on U-251 is 10.6 µM (inactive); with A498, 27.4 µM (inactive); with HT-29 it was 17.4 µM (inactive); in the assay with OVCAR-3, 8.15 µM (inactive); with SNB-19 it was 17.7 µM (inactive).
As for `COc1ccc(C2C(C#N)=C(S)N(C3OC(CO)C(O)C(O)C3O)C(C)=C2C(C)=O)cc1` (stereo not given), the GI50 with SW-620 is > 100 µM (inactive); in the assay on T47D, 30.5 µM (inactive); in the assay on HCT-116 it was > 100 µM (inactive); in the assay with SK-MEL-28, > 100 µM (inactive); in the assay with SN12C, > 100 µM (inactive); in the assay on NCI/ADR-RES, > 100 µM (inactive). Besides, the GI50 in the assay on MDA-MB-231, in the assay with IGROV-1, with OVCAR-4, in the assay with KM12, in the assay with ACHN and with NCI-H460 was > 100 µM (inactive) in each case. Besides, the GI50 in the assay on 786-0 was > 100 µM (inactive); in the assay on U-251, > 100 µM (inactive); in the assay with A498, > 100 µM (inactive); in the assay with HT-29, > 100 µM (inactive); in the assay with OVCAR-3 it was 47.3 µM (inactive); with SNB-19 it was > 100 µM (inactive).
`COc1ccc(C(=O)c2[nH]c(Nc3ccc(Cl)cc3)c(C(=S)Nc3ccccc3)c2N)cc1`: the GI50 was > 100 µM (inactive) in the assay with SW-620; > 100 µM (inactive) with T47D; 60.7 µM (inactive) in the assay with HCT-116; 22.8 µM (inactive) in the assay on SK-MEL-28; > 100 µM (inactive) with SN12C; > 100 µM (inactive) in the assay on NCI/ADR-RES. Moreover, the GI50 was > 100 µM (inactive) in the assay on EKVX; > 100 µM (inactive) in the assay on MDA-MB-231; > 100 µM (inactive) with IGROV-1; 23.8 µM (inactive) in the assay on OVCAR-4; > 100 µM (inactive) in the assay on KM12; > 100 µM (inactive) in the assay on ACHN. For the same compound, the GI50 is > 100 µM (inactive) in the assay on NCI-H460; > 100 µM (inactive) with 786-0; > 100 µM (inactive) in the assay on A498; 24.8 µM (inactive) with HT-29; > 100 µM (inactive) with OVCAR-3; > 100 µM (inactive) in the assay with SNB-19.
For the compound `COc1cc(/C=N/n2c(-c3ccccc3)n[nH]c2=O)cc(OC)c1OC`, the GI50 is > 100 µM (inactive) in the assay with T47D; 0.641 µM (active) with HCT-116; > 28 µM (inactive) in the assay on SK-MEL-28; 7.67 µM (inactive) with SN12C; 1.44 µM (inactive) in the assay with NCI/ADR-RES; 11.4 µM (inactive) in the assay on EKVX. Further, the GI50 was 19.2 µM (inactive) with MDA-MB-231; 2.43 µM (inactive) with IGROV-1; > 26.9 µM (inactive) in the assay with OVCAR-4; 0.425 µM (active) with KM12; 4.02 µM (inactive) in the assay with ACHN; 0.826 µM (active) in the assay on NCI-H460. Moreover, the GI50 was 3.5 µM (inactive) in the assay on 786-0; 3.93 µM (inactive) in the assay with U-251; 3.15 µM (inactive) in the assay on A498; 4.39 µM (inactive) in the assay on HT-29; 4.63 µM (inactive) in the assay on OVCAR-3; 6.37 µM (inactive) in the assay with SNB-19.
Consider `COC(=O)C12CCC(C(F)(F)C1=O)C2(C)C` (stereo not given), for which the GI50 with SW-620, in the assay on T47D, in the assay with HCT-116, with SK-MEL-28, in the assay with SN12C and in the assay with NCI/ADR-RES was > 100 µM (inactive) each time. For the same compound, the GI50 with MDA-MB-231, in the assay with IGROV-1, with OVCAR-4, in the assay on KM12, in the assay with ACHN and in the assay on NCI-H460 was > 100 µM (inactive) each time. The GI50 in the assay with 786-0, in the assay with U-251, in the assay on A498, in the assay on HT-29, in the assay on OVCAR-3 and in the assay on SNB-19 was > 100 µM (inactive) each time.
On to `COC(=O)/C1=C/c2c([nH]c3ccccc23)/C(C(=O)OC)=C\c2c1[nH]c1ccccc21` [CAULERPIN], for which the GI50 in the assay with SW-620 is 34.4 µM (inactive); with T47D, 20.2 µM (inactive); in the assay with HCT-116, 14.2 µM (inactive); in the assay with SN12C it was 34.4 µM (inactive); in the assay with NCI/ADR-RES it was > 50 µM (inactive); in the assay with EKVX, > 50 µM (inactive). Also, the GI50 is 13.7 µM (inactive) with MDA-MB-231; 7.53 µM (inactive) in the assay on IGROV-1; 35.2 µM (inactive) in the assay on KM12; 22.2 µM (inactive) in the assay with ACHN; 13.3 µM (inactive) in the assay on NCI-H460; 11.2 µM (inactive) in the assay on 786-0. The GI50 in the assay with U-251 was 19.5 µM (inactive); with A498, 39.2 µM (inactive); with OVCAR-3, 24.8 µM (inactive); with SNB-19 it was 33.7 µM (inactive).

The record behind these values is ChEMBL document CHEMBL1201862, “PubChem BioAssay data set” (2004).
